{
  "source": "paper PMC12060349",
  "about": "(BMC Pharmacology & Toxicology, 2025)",
  "key": {"[1]": {"system": "healthy Chinese male subjects", "assay": "Safety evaluation", "format": "in vivo, human (healthy Chinese male subjects)"}, "[2]": {"system": "patients with advanced NSCLC with EGFR mutations", "settings": "FLAURA clinical study; cited from earlier work"}, "[3]": {"system": "healthy Chinese male subjects", "assay": "Safety evaluation", "format": "in vivo, human (healthy Chinese male subjects)", "settings": "Group 2"}},
  "data": [
    {"smiles": "CCC(C)n1ncn(-c2ccc(N3CCN(c4ccc(OCC5COC(Cn6cncn6)(c6ccc(Cl)cc6Cl)O5)cc4)CC3)cc2)c1=O", "note": "(stereo not shown) [Itraconazole]", "values": [
      {"measurement": "subjects with TEAEs", "setting": "[1]; Group 1, monotherapy phase with Itraconazole 200 mg QD", "value": 42.9, "unit": "%"},
      {"measurement": "subjects with TEAEs also related to Itraconazole", "setting": "[1]; Group 1, 13 TEAEs in 10 subjects", "value": 66.7, "unit": "%"}
    ]},
    {"smiles": "C=CC(=O)Nc1cc(Nc2nccc(-c3cn(C)c4ccccc34)n2)c(OC)cc1N(C)CCN(C)C", "note": "[Osimertinib]", "values": [
      {"measurement": "median overall survival", "setting": "[2]", "value": 38.6, "unit": "months"}
    ]},
    {"smiles": "CO[C@H]1/C=C/O[C@@]2(C)Oc3c(C)c(O)c4c(O)c(c(/C=N/N5CCN(C)CC5)c(O)c4c3C2=O)NC(=O)/C(C)=C\\C=C\\[C@H](C)[C@H](O)[C@@H](C)[C@@H](O)[C@@H](C)[C@H](OC(C)=O)[C@@H]1C", "note": "[Rifampicin]", "values": [
      {"measurement": "subjects with TEAEs also related to Rifampicin", "setting": "[3]", "value": 20.0, "unit": "%"}
    ]}
  ]
}
